According to article PMC4188605, “Biochemical and Pharmacological Characterization of the Human Lymphocyte Antigen B-Associated Transcript 5 (BAT5/ABHD16A)” (PLoS ONE, 2014):
Where “and” joins values, the source holds several entries; their conditions need not be identical. Equal entries are not always repeated.

Assays:
[1] = target: T1, hABHD6 (Homo sapiens, UniProt Q9BV23); experiment: Hydrolase activity assay, hABHD6-HEK lysates; type: biochemical; details: IC50, hABHD6-HEK lysates
T1 construct: expressed in transfected cells; host or cells: HEK293
T1 sequence (Q9BV23 1-337): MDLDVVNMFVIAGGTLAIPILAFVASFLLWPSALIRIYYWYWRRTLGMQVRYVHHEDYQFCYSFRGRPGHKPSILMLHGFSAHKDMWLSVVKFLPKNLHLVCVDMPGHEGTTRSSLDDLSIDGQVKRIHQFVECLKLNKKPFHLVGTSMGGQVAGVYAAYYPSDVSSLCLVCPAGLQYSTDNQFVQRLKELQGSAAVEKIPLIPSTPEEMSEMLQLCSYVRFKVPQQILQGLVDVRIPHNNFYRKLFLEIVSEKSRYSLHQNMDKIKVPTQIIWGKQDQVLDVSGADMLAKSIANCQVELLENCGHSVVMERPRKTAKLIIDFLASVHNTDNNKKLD

[2] = target: T2, hMAGL (Homo sapiens, UniProt Q99685); experiment: Hydrolase activity assay, hMAGL-HEK lysates; type: biochemical
T2 construct: expressed in transfected cells; host or cells: HEK
T2 sequence (Q99685 1-303): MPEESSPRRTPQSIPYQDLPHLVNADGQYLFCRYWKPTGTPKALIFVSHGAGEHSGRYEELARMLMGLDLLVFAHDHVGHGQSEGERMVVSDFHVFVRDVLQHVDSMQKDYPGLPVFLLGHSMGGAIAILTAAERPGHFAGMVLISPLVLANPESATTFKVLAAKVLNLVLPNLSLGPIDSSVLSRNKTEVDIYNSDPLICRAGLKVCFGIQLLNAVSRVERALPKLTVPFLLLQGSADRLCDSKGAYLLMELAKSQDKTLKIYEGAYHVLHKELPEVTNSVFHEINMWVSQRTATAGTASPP

[3] = target: T3, hABHD12 (Homo sapiens, UniProt Q8N2K0); experiment: Hydrolase activity assay, hABHD12-HEK lysates; type: biochemical
T3 construct: expressed in transfected cells; host or cells: HEK293
T3 sequence (Q8N2K0 1-398): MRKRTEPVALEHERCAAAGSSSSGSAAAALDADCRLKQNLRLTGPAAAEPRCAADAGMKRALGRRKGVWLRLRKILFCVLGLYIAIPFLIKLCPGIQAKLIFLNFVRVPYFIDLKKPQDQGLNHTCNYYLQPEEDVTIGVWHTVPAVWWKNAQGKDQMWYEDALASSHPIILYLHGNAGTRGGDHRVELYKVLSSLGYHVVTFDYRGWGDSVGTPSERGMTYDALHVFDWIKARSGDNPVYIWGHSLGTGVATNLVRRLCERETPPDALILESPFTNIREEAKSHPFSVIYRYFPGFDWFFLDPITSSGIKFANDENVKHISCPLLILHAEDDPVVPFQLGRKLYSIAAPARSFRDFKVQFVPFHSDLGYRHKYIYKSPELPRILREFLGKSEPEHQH

[4] = target: T4, hFAAH (Homo sapiens, UniProt O00519); experiment: FAAH activity assay, hFAAH-COS7 membranes (3H-anandamide); type: biochemical
T4 construct: expressed in transfected cells; host or cells: COS-7
T4 sequence (O00519 1-579): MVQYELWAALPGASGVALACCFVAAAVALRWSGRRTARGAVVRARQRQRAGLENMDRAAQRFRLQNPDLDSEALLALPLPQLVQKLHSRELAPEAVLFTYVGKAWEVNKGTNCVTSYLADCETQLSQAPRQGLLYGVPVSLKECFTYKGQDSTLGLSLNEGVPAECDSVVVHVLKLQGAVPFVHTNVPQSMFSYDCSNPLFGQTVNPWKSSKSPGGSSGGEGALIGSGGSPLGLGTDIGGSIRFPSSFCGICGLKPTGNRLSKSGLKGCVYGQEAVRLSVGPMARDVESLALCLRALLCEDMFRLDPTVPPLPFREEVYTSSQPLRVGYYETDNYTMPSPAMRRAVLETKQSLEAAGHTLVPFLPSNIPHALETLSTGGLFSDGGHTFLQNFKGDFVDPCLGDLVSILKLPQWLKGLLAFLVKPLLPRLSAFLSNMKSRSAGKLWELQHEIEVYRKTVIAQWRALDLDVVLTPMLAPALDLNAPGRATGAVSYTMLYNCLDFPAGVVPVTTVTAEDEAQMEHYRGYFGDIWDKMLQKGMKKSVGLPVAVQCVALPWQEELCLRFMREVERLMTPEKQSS

[5] = substrate: CCCCC/C=C\C/C=C\CCCCCCCCOCC(O)CO; experiment: cells, lysate or membranes named; details: other: substrate of hBAT5, time-point 90 min, n=3
Procedure: HEK293 cells were transiently transfected with the cDNA encoding hBAT5, as detailed in the Methods section. After 48 h, cells were harvested and lysates prepared for hydrolase activity measurements using a sensitive fluorescent glycerol assay. […] Glycerol production was determined at time-point 60 min.
After 48 h, cells were harvested and lysates prepared for hydrolase activity measurements. Cellular lysates (0.3 µg/well) were incubated together with the indicated concentrations of 1-LG in assay mixes containing (+ BSA) or not (– BSA) 0.5% (w/v) BSA (A) or with 15d-PGJ2-G in assay mix containing BSA (B). […] As crude cellular lysates were used, total protein concentration was used instead of true enzyme concentration. […] Values are mean ± SEM from three independent experiments.
Glycerol liberated from the hydrolysis of glycerolipid substrates was determined kinetically using a fluorometric assay, essentially as previously described [10]. Briefly, glycerol production was coupled via a three-step enzymatic cascade to hydrogen peroxide (H2O2) dependent generation of resorufin whose fluorescence (λex 530; λem 590 nm) was kinetically monitored using a Tecan Infinite M200 plate reader (Tecan Group Ltd., Männedorf, Switzerland). The assays routinely contained 0.5% (w/v) BSA (essentially fatty acid free) as a carrier for lipophilic compounds. […] The twelve MAG substrates were tested also in assays without BSA. In addition, four commercially available PG-Gs were included. To monitor assay performance, assay blanks without enzyme, cellular background (HEK293/Mock cell lysates) as well as a glycerol standard were included for each tested substrate. Fluorescence of the assay blank was subtracted before calculation of the final results.

## CCC(C)C(O)C(C)C(=O)C(C)C=C(C)CC(C)C1OC(=O)C1C (stereo not drawn) [Ebelactone A, ebelactone A]
[1]
  IC50: 870 nM
[2]
  remaining activity at 10 µM: 90.8%
  sensitivity of hMAGL (in words): resistant
[3]
  remaining activity at 10 µM: 100%
  sensitivity of hABHD12 (in words): resistant
[4]
  remaining activity at 10 µM: 87.3%
  sensitivity of hFAAH (in words): resistant

B1: hBAT5 (Homo sapiens) (protein)
chain: MAKLLSCVLGPRLYKIYRERDSERAPASVPETPTAVTAPHSSSWDTYYQPRALEKHADSILALASVFWSISYYSSPFAFFYLYRKGYLSLSKVVPFSHYAGTLLLLLAGVACLRGIGRWTNPQYRQFITILEATHRNQSSENKRQLANYNFDFRSWPVDFHWEEPSSRKESRGGPSRRGVALLRPEPLHRGTADTLLNRVKKLPCQITSYLVAHTLGRRMLYPGSVYLLQKALMPVLLQGQARLVEECNGRRAKLLACDGNEIDTMFVDRRGTAEPQGQKLVICCEGNAGFYEVGCVSTPLEAGYSVLGWNHPGFAGSTGVPFPQNEANAMDVVVQFAIHRLGFQPQDIIIYAWSIGGFTATWAAMSYPDVSAMILDASFDDLVPLALKVMPDSWRGLVTRTVRQHLNLNNAEQLCRYQGPVLLIRRTKDEIITTTVPEDIMSNRGNDLLLKLLQHRYPRVMAEEGLRVVRQWLEASSQLEEASIYSRWEVEEDWCLSVLRSYQAEHGPDFPWSVGEDMSADGRRQLALFLARKHLHNFEATHCTPLPAQNFQMPWHL
[5]; with 0.5% BSA
  Km: 137.8 ± 30.6 µM and 140 µM
[5]; without BSA
  Km: 6.9 ± 1.7 µM
